{
  "source": "paper PMC7509987",
  "about": "(Biochemistry, 2020)",
  "key": {"GPX": {"system": "GPX", "conditions": "great excess of 4-hydroxynonenal (1 mM); cited from earlier work"}, "DmTrxR-CCS [1]": {"molecular_target": "T1, DmTrxR-CCS (Drosophila melanogaster, UniProt P91938)", "assay": "NADPH-pre-reduced enzyme", "assay_type": "biochemical", "conditions": "n = 3"}, "mTrxR-CUG": {"molecular_target": "mTrxR-CUG (Mus musculus, UniProt Q9JLT4)", "sequence (Q9JLT4 35-524)": "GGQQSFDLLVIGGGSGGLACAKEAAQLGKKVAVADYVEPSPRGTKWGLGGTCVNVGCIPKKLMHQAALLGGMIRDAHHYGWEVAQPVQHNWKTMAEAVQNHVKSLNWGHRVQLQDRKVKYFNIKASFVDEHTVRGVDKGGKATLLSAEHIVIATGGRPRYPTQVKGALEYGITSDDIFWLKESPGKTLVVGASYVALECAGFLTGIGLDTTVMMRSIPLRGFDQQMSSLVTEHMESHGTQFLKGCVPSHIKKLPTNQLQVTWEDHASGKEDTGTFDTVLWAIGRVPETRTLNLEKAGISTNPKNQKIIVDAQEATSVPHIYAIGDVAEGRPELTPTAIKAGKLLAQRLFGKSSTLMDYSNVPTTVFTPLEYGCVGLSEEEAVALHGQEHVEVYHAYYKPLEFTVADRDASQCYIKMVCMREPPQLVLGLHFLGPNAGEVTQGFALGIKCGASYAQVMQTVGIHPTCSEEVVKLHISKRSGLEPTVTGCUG", "assay": "Inhibition of Trx-reductase activity by electrophiles", "assay_type": "biochemical"}, "mTrxR-C(αMe)UG [2]": {"molecular_target": "mTrxR-C(αMe)UG (Mus musculus, UniProt Q9JLT4)", "sequence (Q9JLT4 35-524)": "as above", "assay": "Inhibition of Trx-reductase activity by electrophiles", "assay_type": "biochemical"}, "DmTrxR-CCS [3]": {"molecular_target": "T1, DmTrxR-CCS", "assay": "Inhibition of Trx-reductase activity by electrophiles", "assay_type": "biochemical, D. melanogaster", "conditions": "7 μM acrolein, pH 7, 10 min, 22 °C"}, "[4]": {"assay": "Solubility in aqueous solutions", "assay_type": "physicochemical"}, "mTrxR-C(αMe)UG [5]": {"system": "mTrxR-C(αMe)UG", "assay_type": "biochemical", "conditions": "read-out: KM (μM), Table 3, DTNB as substrate; n = 3"}, "mTrxR-C(αMe)UG [6]": {"system": "mTrxR-C(αMe)UG", "assay_type": "biochemical", "conditions": "read-out: KM (μM), Table 4, selenocysteamine as substrate; n = 3"}},
  "note": "Where two headings read alike, the source gives them in different places.",
  "data": [
    {"smiles": "CCCCCC(O)/C=C/C=O", "note": "(stereo not drawn) [4-Hydroxynonenal, 4-hydroxynonenal]", "values": [
      {"measurement": "inhibition of GPX", "setting": "GPX", "value": "could not be completely inhibited"}
    ]},
    {"smiles": "C=CC=O", "note": "[Acrolein, acrolein (prop-2-enal)]", "values": [
      {"measurement": "IC50", "setting": "DmTrxR-CCS [1]", "value": 7, "unit": "µM"}
    ]},
    {"smiles": "C=CC=O", "note": "[Acrolein, acrolein]", "values": [
      {"measurement": "inhibition of Trx-reductase activity", "setting": "mTrxR-CUG; 2.5 μM acrolein, pH 4.6, 10 min, 22 °C", "value": "75-85%"},
      {"measurement": "inhibition of Trx-reductase activity", "setting": "mTrxR-C(αMe)UG [2]; 800 nM acrolein, pH 5.5, 10 min, 22 °C", "value": "75-85%"},
      {"measurement": "inhibition of Trx-reductase activity", "setting": "DmTrxR-CCS [3]", "value": "75-85%"}
    ]},
    {"smiles": "O=C/C=C/c1ccccc1", "note": "[Cinnamaldehyde]", "values": [
      {"measurement": "IC50", "setting": "mTrxR-CUG", "value": 225, "unit": "µM"},
      {"measurement": "IC50", "setting": "mTrxR-C(αMe)UG [2]", "value": 230, "unit": "µM"}
    ]},
    {"smiles": "COc1cc(/C=C/C(=O)CC(=O)/C=C/c2ccc(O)c(OC)c2)ccc1O", "note": "[Curcumin, curcumin]", "values": [
      {"measurement": "IC50", "setting": "mTrxR-CUG", "value": 34, "unit": "µM"},
      {"measurement": "Trx-reductase activity remains", "setting": "mTrxR-C(αMe)UG [2]; at 100 uM curcumin, mutant mTrxR", "value": "~ 65%"},
      {"measurement": "solubility", "setting": "[4]", "value": "≤ 100", "unit": "µM"}
    ]},
    {"smiles": "O=C(O)c1cc(SSc2ccc([N+](=O)[O-])c(C(=O)O)c2)ccc1[N+](=O)[O-]", "note": "[DTNB, 5,5′-dithiobis(2-nitrobenzoic acid)]", "values": [
      {"measurement": "Km", "setting": "mTrxR-C(αMe)UG [5]", "value": "5 ± 0.9", "unit": "µM"}
    ]},
    {"smiles": "NCC[Se][Se]CCN", "note": "[selenocysteamine, selenocysteamine (diselenide, used as dichloride; selenocystamine)]", "values": [
      {"measurement": "Km", "setting": "mTrxR-C(αMe)UG [6]", "value": "92 ± 0.9", "unit": "µM"}
    ]}
  ]
}
